Laboratory results from patent US11723362B2, “Broad-spectrum synergistic antimicrobial compositions” (The United States of America, as represented by the …, priority 2019, dated 2023).

Key:
[1] = tested on: Aspergillus brasiliensis ATCC 16404; experiment: Fungicidal activity in ionic surfactant hand wash / foamy hand soap base formula (HW); assay type: cell-based; conditions: pH 7.0; for Log reduction Week 1 / Log reduction Week 2: 1 × 10^6 CFU/mL, 25° C.; for CFU/mL, incubation time 3 d / CFU/mL, incubation time 7 d / CFU/mL, incubation time 13 d / CFU/mL, incubation time 18 d / CFU/mL, incubation time 20 d: 0.4% hydroxamic acid alone, minimum detection limit 5.0 × 10^1; for Log Reduction Day 5 / Log Reduction Day 12: substance alone 0.5%, high loading 10^7 CFU/mL
Description: (§1) This example illustrates the preparation of testing parameters for antimicrobial activity of components of the inventive composition and related compositions for comparison. […] Microbes were grown on Mueller-Hinton agar (MHA, Sigma-Aldrich, St. Louis, Mo.) for 7 days until heavy sporulation was present. Spores from two agar plates were captured in sterile phosphate-buffered saline (PBS) using a sterile swab. Spores were enumerated by serial dilution in Dey-Engley neutralizing broth (DEB; Sigma-Aldrich) and spread plating on MHA. A typical spore stock was determined to contain ˜2×10^7 spores/mL. Bacteria were grown in MH broth for 24 h at 37° C., enumerated by plating, and diluted to the desired concentration as indicated.
All test formulas were adjusted to the desired pH using citric acid and/or NaOH. […] All tubes were kept at room temperature (˜21-22° C.) for 3 weeks. About 100 μL of each inoculated foamy hand soap mixture was diluted 1:10 in DEB and 100 μL of this dilution was spread plated on MHA at several time points (e.g. 3 d, 7 d, 13 d, 18 d, and 20 d). Plates were incubated at room temperature for 3-5 days for mold (1-2 days for bacteria) and colonies enumerated.
The preservative activity of a hydroxamic acid/guanylhydrazone combination was compared to other antimicrobial mixtures in an ionic surfactant-containing formula. […] The fungicidal properties of a mixture of benzhydroxamic acid and guanylhydrazone (1+7) was compared to commercial antimicrobials representing different functional classes (Table 3).

A. brasiliensis = experiment: Minimum inhibitory concentration (MIC) in Mueller-Hinton broth, pH 7.4; assay type: cell-based, Aspergillus brasiliensis; design: Minimum inhibitory concentration: unit not given here; conditions: for Minimum inhibitory concentration: Table 2
Description: as §1
(§2) To assess the antimicrobial activity of hydroxamic acids and derivatives, the inhibitory properties of commercially available hydroxylamines and hydroxamic acids were compared to their alcohol and carboxylic acid analogues diluted in Mueller-Hinton broth at pH 7.4 (Table 1).

P. aeruginosa = experiment: as above; assay type: cell-based, Pseudomonas aeruginosa; design: Minimum inhibitory concentration: unit not given here; conditions: for Minimum inhibitory concentration: Table 2, ATCC 9027
Description: as §1, §2
Guanylhydrazones 7 and 8, which represent a class of broad-spectrum antimicrobials, alone and in combination with hydroxamic acids were evaluated.

[2] = tested on: Pseudomonas aeruginosa ATCC 9027; experiment: Bactericidal activity in ionic surfactant hand wash / foamy hand soap base formula (HW); assay type: cell-based; conditions: pH 7.0; for Day 3 Log Reduction / Day 10 Log Reduction: HW, 1 × 10^6 CFU/ml, 37° C.
Description: This example illustrates the preparation of testing parameters for antimicrobial activity of components of the inventive composition and related compositions for comparison. […] Mold were grown and minimum inhibitory tests performed as previously reported (see e.g., Buckley, H. L. et al. ACS Sustain. Chem. Eng. 5, 4320-4331, 2017). Microbes were grown on Mueller-Hinton agar (MHA, Sigma-Aldrich, St. Louis, Mo.) for 7 days until heavy sporulation was present. Spores from two agar plates were captured in sterile phosphate-buffered saline (PBS) using a sterile swab. Spores were enumerated by serial dilution in Dey-Engley neutralizing broth (DEB; Sigma-Aldrich) and spread plating on MHA. A typical spore stock was determined to contain ˜2×10^7 spores/mL. Bacteria were grown in MH broth for 24 h at 37° C., enumerated by plating, and diluted to the desired concentration as indicated.
To test the various compounds, a foamy hand soap base formula was made with sodium lauryl sulfate (SLS, 2.4% w/w; Sulfochem SLS-PHP [30% active], The Lubrizol Corporation, Wickliffe, Ohio) and cocoamidopropyl betaine (CAPB, 1.2% w/w; Mackam 35 [30% active], Solvay S.A, Brussels, Belgium) in deionized water and sterilized by filtration (0.22 μm, PVDF; VWR, Radnor, Pa.). All test formulas were adjusted to the desired pH using citric acid and/or NaOH. All tubes were inoculated with 250 μL of spore inoculum (described above) to a total volume of 5 mL, for a final spore concentration of ˜1×10^6 spores/mL in each tube. […] About 100 μL of each inoculated foamy hand soap mixture was diluted 1:10 in DEB and 100 μL of this dilution was spread plated on MHA at several time points (e.g. 3 d, 7 d, 13 d, 18 d, and 20 d). Plates were incubated at room temperature for 3-5 days for mold (1-2 days for bacteria) and colonies enumerated.

C. albicans = experiment: Minimum inhibitory concentration (MIC) in Mueller-Hinton broth, pH 7.4; assay type: cell-based, Candida albicans
Description: as §1, §2

S. aureus = experiment: as above; assay type: cell-based, Staphylococcus aureus
Description: as §1, §2

E. coli = experiment: as above; assay type: cell-based, Escherichia coli
Description: as §1, §2

[3] = hand soap formula, 0.4% 1 alone

MIC (C. albicans) [wt %] | MIC (S. aureus) [wt %] | MIC (E. coli) [wt %] | MIC (A. brasiliensis) [wt %] | MIC (P. aeruginosa) [wt %] | Compound | further results
 |  |  |  |  | CCc1ccc(C(=O)NO)cc1 [4-ethylbenzhydroxamic acid 3, 4-ethylbenzhydroxamic acid] | Log reduction Week 1 ([1]; HW, 0.2 wt %): 4 Log; Log reduction Week 2 ([1]; HW, 0.2 wt %): 1 Log; Log reduction Week 1 ([1]; HW, 0.5 wt %): 4 Log; Log reduction Week 2 ([1]; HW, 0.5 wt %): 4 Log; Minimum inhibitory concentration (A. brasiliensis): 0.06; Minimum inhibitory concentration (P. aeruginosa): 0.5; Day 3 Log Reduction ([2]; substance alone 0.2%): 1 Log; Day 10 Log Reduction ([2]; substance alone 0.2%): 0 Log
 |  |  |  |  | CC(C)c1ccc(C(=O)NO)cc1 [4-isopropylbenzhydroxamic acid 5, 4-isopropylbenzhydroxamic acid] | CFU/mL, incubation time 3 d ([1]; hand soap formula): >2.5 × 10^4 CFU/mL; CFU/mL, incubation time 7 d ([1]; hand soap formula): 1.0 × 10^4 CFU/mL; CFU/mL, incubation time 13 d ([1]; hand soap formula): 1.0 × 10^2 CFU/mL; CFU/mL, incubation time 18 d ([1]; hand soap formula): <5.0 × 10^1 CFU/mL; CFU/mL, incubation time 20 d ([1]; hand soap formula): <5.0 × 10^1 CFU/mL; Minimum inhibitory concentration (A. brasiliensis): 0.04
 |  |  |  |  | Cc1ccc(C(=O)NO)cc1 [4-methylbenzhydroxamic acid 2, 4-methylbenzhydroxamic acid] | Log reduction Week 1 ([1]; HW, 0.2 wt %): 4 Log; Log reduction Week 2 ([1]; HW, 0.2 wt %): 4 Log; Minimum inhibitory concentration (A. brasiliensis): 0.02; Minimum inhibitory concentration (P. aeruginosa): 0.3; Day 3 Log Reduction ([2]; substance alone 0.2%): 2 Log; Day 10 Log Reduction ([2]; substance alone 0.2%): 4 Log
 |  |  |  |  | CCCCc1ccc(C(=O)NO)cc1 [4-n-butylbenzhydroxamic acid 6, 4-n-butylbenzhydroxamic acid] | Log reduction Week 1 ([1]; HW, 0.4 wt %): 4 Log; Log reduction Week 2 ([1]; HW, 0.4 wt %): none; Minimum inhibitory concentration (A. brasiliensis): 0.008; Minimum inhibitory concentration (P. aeruginosa): 0.1; Day 3 Log Reduction ([2]; substance alone 0.4%): 0 Log; Day 10 Log Reduction ([2]; substance alone 0.4%): 0 Log
 |  |  |  |  | CCCc1ccc(C(=O)NO)cc1 [4-n-propylbenzhydroxamic acid 4, 4-n-propylbenzhydroxamic acid] | CFU/mL, incubation time 3 d ([1]; hand soap formula): >2.5 × 10^4 CFU/mL; CFU/mL, incubation time 7 d ([1]; hand soap formula): >2.2 × 10^4 CFU/mL; CFU/mL, incubation time 13 d ([1]; hand soap formula): 5.0 × 10^2 CFU/mL; CFU/mL, incubation time 18 d ([1]; hand soap formula): 1.5 × 10^2 CFU/mL; CFU/mL, incubation time 20 d ([1]; hand soap formula): <5.0 × 10^1 CFU/mL; Minimum inhibitory concentration (A. brasiliensis): 0.02
0.2 | 0.06 | 0.1 | 0.2 | 0.06 | CC(=O)O [Acetic acid] | 
0.2 | 0.5 | 0.5 | 0.5 | 0.5 | CC(=O)NO [Acetohydroxamic acid] | 
0.03 | 0.06 | 0.5 | 0.02 | 0.1 | O=C(NO)c1ccccc1 [Benzhydroxamic acid 1, Benzhydroxamic acid] | Log reduction Week 1 ([1]; HW, 0.5 wt %): 1 Log; Log reduction Week 2 (day 12) ([1]; HW, 0.5 wt %, day 12): 4 Log; Log Reduction Day 5 ([1]; HW): 1 Log; Log Reduction Day 12 ([1]; HW): 4 Log; CFU/mL after 7 d contact time [1, 3]: 1 × 10^3 CFU/mL; Minimum inhibitory concentration (A. brasiliensis): 0.02; Minimum inhibitory concentration (P. aeruginosa): 0.1; CFU/mL after 7 d contact time [2, 3]: 2 × 10^4 CFU/mL
0.5 | 0.5 | 0.5 | 0.5 | 0.2 | OCc1ccccc1 [Benzyl alcohol] | 
0.5 | 0.5 | 0.5 | 0.5 | 0.5 | CCCCCCCC(=O)O [Caprylic acid] | 
 |  |  |  |  | CCCCCCC(O)CO (centres unmarked) [Caprylyl Glycol] | Log Reduction Day 5 ([1]; HW): 0 Log; Log Reduction Day 12 ([1]; HW): 1 Log
10 | 10 |  | 0.47 | 10 | CCO [Ethanol] | 
0.5 | 0.5 | 0.5 | 0.2 | 0.2 | Cl.ONCc1ccccc1 [N-benzylhydroxylamine HCl] | 
 | 0.5 | >0.5 | >0.5 | 0.5 | O=C1CCC(=O)N1O [N-hydroxysuccinimide] | 
0.5 | 0.2 | 0.2 | 0.2 | 0.2 | Cl.NOCc1ccccc1 [O-benzylhydroxylamine HCl] | 
0.1 | >0.5 | 0.3 | 0.06 | 0.2 | Cl.NOc1ccccc1 [O-phenylhydroxylamine HCl] | 
 |  |  |  |  | CCCOC(=O)c1cc(O)c(O)c(O)c1 [Propyl gallate] | Log Reduction Day 5 ([1]; HW): 1 Log; Log Reduction Day 12 ([1]; HW): 1 Log
0.5 | 0.1 | 0.2 | 0.5 | 0.2 | O=C(O)c1ccccc1O [Salicylic acid] | 
0.5 | 0.5 | >0.5 | 0.5 | 0.5 | O=C(CCCCCCC(=O)NO)NO [Suberohydroxamic acid] | 
 |  |  |  |  | Sorbitan caprylate | Log Reduction Day 12 ([1]; HW): 0 Log

Compound | MIC (C. albicans) [wt %] | MIC (S. aureus) [wt %] | MIC (E. coli) [wt %] | MIC (A. brasiliensis) [wt %] | MIC (P. aeruginosa) [wt %] | further results
O=C(O)c1ccccc1 [Benzoic acid] | 0.2 | 0.2 | 0.2 | 0.2 | 0.2 | 
CO [Methanol] | 20 | 20 |  | 0.5 | 20 | 
CCON.Cl [O-ethylhydroxylamine HCl] | 0.2 | 0.1 | 0.1 | 0.1 | 0.1 | 
CON.Cl [O-methylhydroxylamine HCl] | 0.5 | 0.06 | 0.2 | 0.1 | 0.1 | 
CC(C)(C)ON.Cl [O-tert-butylhydroxylamine HCl] | 0.5 | 0.1 | 0.5 | 0.5 | 0.2 | 
Oc1ccccc1 [Phenol] | 0.2 | 0.2 | >0.5 | 0.1 | 0.2 | 
CC(C)(C)O [t-Butanol] | 0.5 | 5 | >0.5 | >0.5 | 20 | 
